Measured values published in article PMC11432795, “Mutagenesis of the Peptide Inhibitor of ASIC3 Channel Introduces Binding to Thumb Domain of ASIC1a but Reduces Analgesic Activity” (Marine Drugs, 2024).
Positions of bridges follow the written chain, without caps; N, C: chain ends. Residues, ends and D or L forms follow the SMILES beside them.

What was measured:
rat ASIC1a channel = biological target: T1, rat ASIC1a channel (Rattus norvegicus, UniProt P55926); test: Two-electrode voltage clamp, rat ASIC1a in X. laevis oocytes; format: cell-based
T1 construct: expressed in transfected cells; host or cells: Xenopus laevis oocytes injected with mRNA made from a pCI-rASIC1a plasmid
T1 sequence (P55926 1-526): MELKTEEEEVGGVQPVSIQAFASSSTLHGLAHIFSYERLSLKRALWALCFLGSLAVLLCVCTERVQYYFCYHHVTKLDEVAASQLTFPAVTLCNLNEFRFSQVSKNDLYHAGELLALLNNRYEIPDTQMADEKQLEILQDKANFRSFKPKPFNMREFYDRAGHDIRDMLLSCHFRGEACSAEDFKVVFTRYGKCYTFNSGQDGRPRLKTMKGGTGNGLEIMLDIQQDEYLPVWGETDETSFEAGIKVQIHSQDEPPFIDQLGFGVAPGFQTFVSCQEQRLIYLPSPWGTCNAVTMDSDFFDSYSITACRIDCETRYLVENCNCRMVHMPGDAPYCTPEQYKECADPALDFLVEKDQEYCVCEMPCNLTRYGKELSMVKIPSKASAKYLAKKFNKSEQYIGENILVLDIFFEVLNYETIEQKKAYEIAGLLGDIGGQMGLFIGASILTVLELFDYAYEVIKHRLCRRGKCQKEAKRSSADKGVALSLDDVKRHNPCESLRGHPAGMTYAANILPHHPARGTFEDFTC
Description: Figure 3 The effect of mutant peptides S16K and A23K on rat ASIC1a and ASIC3 channels. […] (B) Dose–response curves for the inhibitory effect of mutant peptides on ASIC1a. Each data point represents data from 5 cells. (C) Representative current traces of Ugr9-1, S16K, and A23K at a concentration of 12.5 µM on ASIC3. […] Each point represents data from 5 cells. The depicted currents were induced by a pH 5.5 stimulus following a conditioning pH of 7.4, with peptides applied for 30 s before the pH stimulus. The holding potential (Vh) was −50 mV, and the time interval between applications ranged from 1 to 2 min. Data are presented as mean ± S.E.M.
A small portion of the ovary was isolated from frogs under anesthesia induced by a 0.17% solution of procaine methanesulphonate (MS222) (Sigma), followed by treatment with collagenase (1 mg/mL) at room temperature for 2 h. Oocytes at stages IV and V, devoid of follicular membranes, were transferred to ND-96 medium (containing 96 mM NaCl, 5 mM HEPES, 2 mM KCl, 1.8 mM CaCl2, 1 mM MgCl2, pH 7.4). mRNA synthesis was performed from pcDNA3.1 vectors (Invitrogen, Carlsbad, CA, USA) containing the rat ASIC3 gene, as well as pCI vectors containing genes for rat ASIC1a, its mutant analogues, and ASIC1b. mRNA (2.5–10 ng) was then injected into the oocytes. For the ASIC1a/3 heteromeric channels, the mRNA encoding the ASIC1a and ASIC3 subunits were injected in a 1:5 ratio, respectively. Subsequently, the oocytes were incubated for 2–3 days at a temperature of 17–19 °C in ND96 medium supplemented with gentamicin and streptomycin (20 µg/mL each).
Whole-cell electrophysiological recordings of ASIC channels were conducted using a two-electrode voltage-clamp setup. Microelectrodes were filled with 3 M KCl. Recordings from oocytes were carried out at a holding potential of −50 mV, with data filtered at 10 Hz and sampled at a rate of 100 Hz using an L780M ADC (LCard, Moscow, Russia). The synchronized delivery of solutions into the chamber and recording of electrophysiological results were carried out using in-house software v.2. Activation of ASIC channels occurred through rapid pH changes in the solution, achieved by replacing the working solution in the chamber with ND96-based solutions at varying pH levels. Specifically, HEPES was substituted with 10 mM MES for pH 5.5–6.5 and MOPS for pH 6.7–7.0.
Fresh peptide solutions were meticulously prepared in ND96 buffer with a pH of 7.43 immediately before experiments, with strict control over the pH levels. Peptides were applied for 30 s at a conditioning pH of 7.43 before acid stimulation of the channel. The interval between applications was maintained at a minimum of 1.5 to 2 min.
Electrophysiological data analysis was conducted using OriginPro 2018 software (OriginLab, Northampton, MA, USA). Dose–response relationships for Ugr9a-1, S16K, and A23K peptides were fitted using a Hill function: F1(x) = A − A/(1 + (x/IC50)^nH), where F1(x) represents the amplitude of the current at concentration x of the peptide, A is the maximum amplitude of the current, IC50 is the half-maximum inhibitory concentration of the peptide, and nH is the Hill coefficient.

[1] = CFA-induced hyperalgesia, hot plate test; format: in vivo, ICR mice; details: hot plate 53 °C; for prolongation of paw withdrawal time, significance by dose: 0.002, 0.02, 0.2 mg/kg i.m.
Description: (§1) In the CFA-induced hyperalgesia test, where CFA administration induces excess sensitivity to mechanical and thermal stimuli, the analgesic effects of peptides were assessed using von Frey filaments of varying forces (von Frey test) and a hot plate apparatus (hot plate test).
(§2) Adult male ICR mice (Animal Breeding Facility Branch of Shemyakin–Ovchinnikov Institute of Bioorganic Chemistry, Russian Academy of Sciences, Pushchino, Russia), weighing 20–25 g, were utilized. Animals were housed under controlled conditions, with a room temperature of 23 ± 2 °C, a 12 h light–dark cycle, and ad libitum access to food and water. Test substances were dissolved in saline. Peptides (Ugr9-1 and A23K at doses of 0.002, 0.02, and 0.2 mg/kg) and saline (for the control group) were administered intramuscularly 60 min prior to testing.
(§3) The abdominal constriction test of visceral pain (acetic acid-induced writhing pain model) and hyperalgesia induced by complete Freund’s adjuvant (CFA-induced inflammatory pain model) were performed as previously described.
(§4) Statistical analysis was conducted using analysis of variance (ANOVA) with post hoc Tukey’s test, and data are presented as mean ± standard deviation (S.D.).

[2] = Acetic acid-induced writhing (AAW pain model); format: in vivo, ICR mice; details: for reduction of number of writhes, significance by dose: 0.002, 0.02, 0.2 mg/kg i.m.
Description: In both the AAW and CFA-induced hyperalgesia, Ugr9-1 and A23K peptides were administered intramuscularly one hour before the experiments at doses of 0.002, 0.02, and 0.2 mg/kg. In the AAW test, analgesic efficacy was evaluated by assessing the reduction in the number of involuntary writhing episodes induced by intraperitoneal injection of a 0.6% acetic acid solution.
as §2, §3, §4

[3] = CFA-induced hyperalgesia, von Frey test; format: in vivo, ICR mice; details: for increase in paw withdrawal threshold (PWT), significance by dose: 0.002, 0.02, 0.2 mg/kg i.m.
Description: as §1, §2, §3
For the von Frey filaments test, mice were positioned in a plastic chamber with access to the inflamed hind paw surface and an electronic von Frey filament (BIO-EVF, Bioseb, Vitrolles, France) was applied with gradually increasing pressure until withdrawal. Data, expressed as the strength of the applied mechanical stimulus from three applications, were averaged, with intervals between exposures of at least 1 min.
as §4

[4] = one hour before testing, 0.6% acetic acid i.p., n = 7
[5] = 0.02 mg/kg i.m., one hour before testing, n = 7

SMILES | inhibition at 10 µM (rat ASIC1a channel; 10 µM, pH 5.5 stimulus, conditioning pH 7.4, peptide 30 s, mean ± SEM, n = 5, read-out: inhibitory effect on wild-type ASIC1a) [%] | activity on ASIC1a compared to S16K (rat ASIC1a channel; A23K versus S16K) | Hill slope (nH) (rat ASIC1a channel; inhibition of rat ASIC1a, pH 5.5 stimulus, conditioning pH 7.4, mean ± S.E.M., 5 cells) | IC50 (rat ASIC1a channel; rat ASIC1a, X. laevis oocytes, TEVC, Vh −50 mV, pH 5.5 stimulus, conditioning pH 7.4, peptide 30 s before stimulus, mean ± S.E.M., 5 cells, read-out: half-maximal inhibitory concentration (IC50)) [µM] | prolongation of paw withdrawal time, significance by dose ([1]; one hour before testing, n = 7) | paw withdrawal time effect compared to Ugr9-1 ([1]; versus Ugr9-1) | reduction of writhing, times less effective than Ugr9-1 ([2]; 0.02 mg/kg i.m., versus Ugr9-1) [times] | reduction of number of writhes, significance by dose [2, 4] | increase in PWT compared to Ugr9-1 ([3]; 0.02 mg/kg i.m., versus Ugr9-1) | increase in paw withdrawal threshold (PWT), significance by dose ([3]; one hour before testing, n = 7) | effect on ASIC1a at 50 µM (rat ASIC1a channel; 50 µM, representative current traces, pH 5.5 stimulus, conditioning pH 7.4) | activity towards rASIC1a (rat ASIC1a channel; pH 5.5 stimulus, conditioning pH 7.4) | increase in paw withdrawal time (maximum effect) [1, 5] [%] | inhibition of number of writhes (maximum effect) ([2]; 0.02 mg/kg i.m., one hour before testing, 0.6% acetic acid i.p., n = 7) [%] | increase in paw withdrawal threshold (maximum effect) [3, 5] [%]
CC[C@H](C)[C@H](N)C(=O)N[C@@H](CO)C(=O)N[C@H](C(=O)N[C@@H](CC(=O)O)C(=O)N1CCC[C@H]1C(=O)N1CCC[C@H]1C(=O)N[C@H]1CSSC[C@@H]2NC(=O)[C@H](CC(N)=O)NC(=O)CNC(=O)[C@H](CO)NC(=O)CNC(=O)[C@H](CC(=O)O)NC(=O)[C@H](CCCNC(=N)N)NC(=O)[C@H](Cc3c[nH]cn3)NC(=O)[C@H](Cc3ccc(O)cc3)NC(=O)[C@H](CSSC[C@@H](C(=O)NCC(=O)N[C@@H](C)C(=O)N[C@H](C(=O)O)C(C)C)NC(=O)CNC(=O)[C@H](Cc3ccc(O)cc3)NC(=O)[C@H](CCCCN)NC(=O)[C@H](CC(=O)O)NC(=O)[C@H](Cc3ccc(O)cc3)NC(=O)[C@H](C(C)C)NC2=O)NC(=O)[C@H](Cc2ccccc2)NC(=O)[C@H](CCCNC(=N)N)NC1=O)[C@@H](C)CC [A23K] (H-ISIDPPCRFCYHRDGSGNCVYDKYGCGAV-OH; disulfide 7-19, 10-26) | 74.9 ± 6.5 | over three times more active than S16K | 2.84 ± 0.31 | 6.72 | effects only at doses of 0.02 and 0.2 mg/kg | two times less effective than Ugr9-1 | 1.5 | significant reduction in writhing episodes only at a dose of 0.02 mg/kg | more than three times less effectively than Ugr9-1 | significantly increased PWT only at 0.02 mg/kg |  |  |  |  | 
CC[C@H](C)[C@H](N)C(=O)N[C@@H](CO)C(=O)N[C@H](C(=O)N[C@@H](CC(=O)O)C(=O)N1CCC[C@H]1C(=O)N1CCC[C@H]1C(=O)N[C@H]1CSSC[C@@H]2NC(=O)[C@H](CC(N)=O)NC(=O)CNC(=O)[C@H](CO)NC(=O)CNC(=O)[C@H](CC(=O)O)NC(=O)[C@H](CCCNC(=N)N)NC(=O)[C@H](Cc3c[nH]cn3)NC(=O)[C@H](Cc3ccc(O)cc3)NC(=O)[C@H](CSSC[C@@H](C(=O)NCC(=O)N[C@@H](C)C(=O)N[C@H](C(=O)O)C(C)C)NC(=O)CNC(=O)[C@H](Cc3ccc(O)cc3)NC(=O)[C@H](C)NC(=O)[C@H](CC(=O)O)NC(=O)[C@H](Cc3ccc(O)cc3)NC(=O)[C@H](C(C)C)NC2=O)NC(=O)[C@H](Cc2ccccc2)NC(=O)[C@H](CCCNC(=N)N)NC1=O)[C@@H](C)CC [Ugr9-1] (H-ISIDPPCRFCYHRDGSGNCVYDAYGCGAV-OH; disulfide 7-19, 10-26) |  |  |  |  | significantly prolonged paw withdrawal time at all doses |  |  | significantly decreased the number of writhes at all three doses |  | significant increase in paw withdrawal threshold (PWT) at all doses | lack of effect | no activity | 106 | 30 | 270
